Measured values reported in ChEMBL document CHEMBL4014300, “Synthesis and biological evaluation of novel quinazoline-sulfonamides as anti-cancer agents” (Bioorg Med Chem Lett, 2017).
Values after ≈ are worked out from the molar mass of the structure shown. Active and inactive are the calls of the source. The rule behind the calls is not given here.

Tests used:
FHC [1] = experiment: Cytotoxicity against human FHC cells assessed as reduction in cell viability after 24 hrs by MTT assay; format: cell-based
DU-145 [2] = experiment: Cytotoxicity against human DU145 cells assessed as reduction in cell viability after 24 hrs by MTT assay; format: functional, cell-based; details: DU-145, 24 h
SK-OV-3 [3] = experiment: Cytotoxicity against human SKOV3 cells assessed as reduction in cell viability after 24 hrs by MTT assay; format: functional, cell-based; details: SK-OV-3, 24 h
THP-1 [4] = experiment: Cytotoxicity against human THP1 cells assessed as reduction in cell viability after 24 hrs by MTT assay; format: functional, cell-based; details: THP-1, 24 h
U-937 [5] = experiment: Cytotoxicity against human U937 cells assessed as reduction in cell viability after 24 hrs by MTT assay; format: functional, cell-based; details: U-937, 24 h
COLO 205 [6] = experiment: Cytotoxicity against human COLO205 cells assessed as reduction in cell viability after 24 hrs by MTT assay; format: functional, cell-based; details: COLO 205, 24 h
SK-OV-3 [7] = experiment: Cytotoxicity against human SKOV3 cells assessed as reduction in cell viability at 100 ug/ml after 24 hrs by MTT assay; format: functional, cell-based
DU-145 [8] = experiment: Cytotoxicity against human DU145 cells assessed as reduction in cell viability at 100 ug/ml after 24 hrs by MTT assay; format: functional, cell-based
U-937 [9] = experiment: Cytotoxicity against human U937 cells assessed as reduction in cell viability at 100 ug/ml after 24 hrs by MTT assay; format: functional, cell-based
COLO 205 [10] = experiment: Cytotoxicity against human COLO205 cells assessed as reduction in cell viability at 100 ug/ml after 24 hrs by MTT assay; format: functional, cell-based
FHC [11] = experiment: Cytotoxicity against human FHC cells assessed as reduction in cell viability at 100 ug/ml after 24 hrs by MTT assay; format: cell-based
THP-1 [12] = experiment: Cytotoxicity against human THP1 cells assessed as reduction in cell viability at 100 ug/ml after 24 hrs by MTT assay; format: functional, cell-based

Compound: COc1cc2nc(N3CCCC3)nc(NS(=O)(=O)C3CC3)c2cc1OC
- IC50 (FHC [1]): 66.6 µg/mL (≈ 176 µM)
- IC50 (DU-145 [2]): 11.1 µg/mL (≈ 29.3 µM)
- IC50 (SK-OV-3 [3]): 17.6 µg/mL (≈ 46.4 µM)
- IC50 (THP-1 [4]): 9.13 µg/mL (≈ 24.1 µM)
- IC50 (U-937 [5]): 6.43 µg/mL (≈ 17 µM)
- IC50 (COLO 205 [6]): 10.2 µg/mL (≈ 26.8 µM)

Compound: COc1cc2nc(N3CCOCC3)nc(NS(=O)(=O)c3cccc4c3OCO4)c2cc1OC
- IC50 (THP-1 [4]): 71.6 µg/mL (≈ 151 µM)
- Activity (SK-OV-3 [7]): inactive
- Activity (DU-145 [8]): inactive
- Activity (U-937 [9]): inactive
- Activity (COLO 205 [10]): inactive
- Activity (FHC [11]): Non-Toxic

Compound: COc1cc2nc(Cl)nc(NS(=O)(=O)c3cccs3)c2cc1OC
- IC50 (FHC [1]): 98.7 µg/mL (≈ 256 µM)
- IC50 (DU-145 [2]): 16.4 µg/mL (≈ 42.6 µM)
- IC50 (SK-OV-3 [3]): 19.1 µg/mL (≈ 49.4 µM)
- IC50 (THP-1 [4]): 11.2 µg/mL (≈ 29.1 µM)
- IC50 (U-937 [5]): 10.1 µg/mL (≈ 26.1 µM)
- IC50 (COLO 205 [6]): 27.5 µg/mL (≈ 71.3 µM)

Compound: COc1cc2nc(N3CCCC3)nc(NS(=O)(=O)c3ccc(C)cc3)c2cc1OC
- IC50 (FHC [1]): 48.1 µg/mL (≈ 112 µM)
- IC50 (DU-145 [2]): 14.1 µg/mL (≈ 33 µM)
- IC50 (SK-OV-3 [3]): 20 µg/mL (≈ 46.7 µM)
- IC50 (THP-1 [4]): 7.06 µg/mL (≈ 16.5 µM)
- IC50 (U-937 [5]): 8.61 µg/mL (≈ 20.1 µM)
- IC50 (COLO 205 [6]): 24.1 µg/mL (≈ 56.3 µM)

Compound: COc1cc2nc(Cl)nc(NS(=O)(=O)Cc3cccc(I)c3)c2cc1OC
- IC50 (THP-1 [4]): 96.2 µg/mL (≈ 185 µM)
- IC50 (U-937 [5]): 66.5 µg/mL (≈ 128 µM)
- Activity (SK-OV-3 [7]): inactive
- Activity (DU-145 [8]): inactive
- Activity (COLO 205 [10]): inactive
- Activity (FHC [11]): Non-Toxic

Compound: COc1cc2nc(N3CCOCC3)nc(NS(=O)(=O)c3cccc(C(F)(F)F)c3)c2cc1OC
- IC50 (DU-145 [2]): 45.8 µg/mL (≈ 91.8 µM)
- IC50 (SK-OV-3 [3]): 50.5 µg/mL (≈ 101 µM)
- IC50 (THP-1 [4]): 38.8 µg/mL (≈ 77.9 µM)
- IC50 (U-937 [5]): 28.7 µg/mL (≈ 57.6 µM)
- IC50 (COLO 205 [6]): 61.8 µg/mL (≈ 124 µM)
- Activity (FHC [11]): Non-Toxic

Compound: COc1cc2nc(Cl)nc(NS(=O)(=O)c3ccccc3)c2cc1OC
- IC50 (FHC [1]): 73 µg/mL (≈ 192 µM)
- IC50 (DU-145 [2]): 12.3 µg/mL (≈ 32.5 µM)
- IC50 (SK-OV-3 [3]): 9.23 µg/mL (≈ 24.3 µM)
- IC50 (THP-1 [4]): 8.17 µg/mL (≈ 21.5 µM)
- IC50 (U-937 [5]): 6.06 µg/mL (≈ 16 µM)
- IC50 (COLO 205 [6]): 19 µg/mL (≈ 50.1 µM)

Compound: COc1cc2nc(Cl)nc(NS(=O)(=O)c3ccc(C)cc3)c2cc1OC
- IC50 (DU-145 [2]): 44.2 µg/mL (≈ 112 µM)
- IC50 (THP-1 [4]): 33.5 µg/mL (≈ 85.2 µM)
- IC50 (U-937 [5]): 39.9 µg/mL (≈ 101 µM)
- IC50 (COLO 205 [6]): 91.3 µg/mL (≈ 232 µM)
- Activity (SK-OV-3 [7]): inactive
- Activity (FHC [11]): Non-Toxic

Compound: COc1cc2nc(Cl)nc(NS(=O)(=O)c3cccc(C(F)(F)F)c3)c2cc1OC
- IC50 (DU-145 [2]): 23.1 µg/mL (≈ 51.5 µM)
- IC50 (SK-OV-3 [3]): 32.3 µg/mL (≈ 72.1 µM)
- IC50 (THP-1 [4]): 36.4 µg/mL (≈ 81.3 µM)
- IC50 (U-937 [5]): 59 µg/mL (≈ 132 µM)
- IC50 (COLO 205 [6]): 99 µg/mL (≈ 221 µM)
- Activity (FHC [11]): Non-Toxic

Compound: COc1cc2nc(Cl)nc(NS(C)(=O)=O)c2cc1OC
- IC50 (FHC [1]): 88.1 µg/mL (≈ 277 µM)
- IC50 (SK-OV-3 [3]): 88 µg/mL (≈ 277 µM)
- IC50 (THP-1 [4]): 99.7 µg/mL (≈ 314 µM)
- Activity (DU-145 [8]): inactive
- Activity (U-937 [9]): inactive
- Activity (COLO 205 [10]): inactive

Compound: COc1cc2nc(Cl)nc(NS(=O)(=O)C3CC3)c2cc1OC
- Activity (SK-OV-3 [7]): inactive
- Activity (DU-145 [8]): inactive
- Activity (THP-1 [12]): inactive
- Activity (U-937 [9]): inactive
- Activity (COLO 205 [10]): inactive
- Activity (FHC [11]): Non-Toxic

Compound: COc1cc([C@@H]2c3cc4c(cc3[C@@H](O[C@@H]3O[C@@H]5CO[C@@H](C)O[C@H]5[C@H](O)[C@H]3O)[C@H]3COC(=O)[C@H]23)OCO4)cc(OC)c1O [ETOPOSIDE]
- IC50 (FHC [1]): 49.3 µg/mL (≈ 83.8 µM)
- IC50 (DU-145 [2]): 6.17 µg/mL (≈ 10.5 µM)
- IC50 (SK-OV-3 [3]): 3.84 µg/mL (≈ 6.52 µM)
- IC50 (THP-1 [4]): 4.42 µg/mL (≈ 7.51 µM)
- IC50 (U-937 [5]): 2.89 µg/mL (≈ 4.91 µM)
- IC50 (COLO 205 [6]): 5.12 µg/mL (≈ 8.7 µM)

Compound: COc1cc2nc(N3CCCC3)nc(NS(=O)(=O)c3cccs3)c2cc1OC
- Activity (SK-OV-3 [7]): inactive
- Activity (DU-145 [8]): inactive
- Activity (THP-1 [12]): inactive
- Activity (U-937 [9]): inactive
- Activity (COLO 205 [10]): inactive
- Activity (FHC [11]): Non-Toxic

Compound: COc1ccc(S(=O)(=O)Nc2nc(Cl)nc3cc(OC)c(OC)cc23)cc1
- Activity (SK-OV-3 [7]): inactive
- Activity (DU-145 [8]): inactive
- Activity (THP-1 [12]): inactive
- Activity (U-937 [9]): inactive
- Activity (COLO 205 [10]): inactive
- Activity (FHC [11]): Non-Toxic

Compound: COc1cc2nc(N3CCCC3)nc(NS(=O)(=O)c3cccc(C(F)(F)F)c3)c2cc1OC
- IC50 (DU-145 [2]): 65.1 µg/mL (≈ 135 µM)
- IC50 (SK-OV-3 [3]): 22.1 µg/mL (≈ 45.9 µM)
- IC50 (THP-1 [4]): 15.9 µg/mL (≈ 32.9 µM)
- IC50 (U-937 [5]): 16 µg/mL (≈ 33.2 µM)
- IC50 (COLO 205 [6]): 78 µg/mL (≈ 162 µM)
- Activity (FHC [11]): Non-Toxic

Compound: COc1cc2nc(Cl)nc(NS(=O)(=O)c3cccc4c3OCO4)c2cc1OC
- IC50 (SK-OV-3 [3]): 78.1 µg/mL (≈ 184 µM)
- IC50 (THP-1 [4]): 48.6 µg/mL (≈ 115 µM)
- IC50 (U-937 [5]): 89.6 µg/mL (≈ 211 µM)
- Activity (DU-145 [8]): inactive
- Activity (COLO 205 [10]): inactive
- Activity (FHC [11]): Non-Toxic

Compound: COc1ccc(S(=O)(=O)Nc2nc(Cl)nc3cc(OC)c(OC)cc23)cc1C
- IC50 (DU-145 [2]): 39.5 µg/mL (≈ 93.1 µM)
- IC50 (SK-OV-3 [3]): 68.1 µg/mL (≈ 161 µM)
- IC50 (THP-1 [4]): 79 µg/mL (≈ 186 µM)
- IC50 (U-937 [5]): 41.1 µg/mL (≈ 96.9 µM)
- IC50 (COLO 205 [6]): 57 µg/mL (≈ 134 µM)
- Activity (FHC [11]): Non-Toxic

Compound: COc1cc2nc(N3CCOCC3)nc(NS(=O)(=O)C3CC3)c2cc1OC
- IC50 (FHC [1]): 73.2 µg/mL (≈ 186 µM)
- IC50 (DU-145 [2]): 25.1 µg/mL (≈ 63.5 µM)
- IC50 (SK-OV-3 [3]): 32.1 µg/mL (≈ 81.5 µM)
- IC50 (THP-1 [4]): 13.8 µg/mL (≈ 34.9 µM)
- IC50 (U-937 [5]): 8.09 µg/mL (≈ 20.5 µM)
- IC50 (COLO 205 [6]): 49.1 µg/mL (≈ 124 µM)

Compound: COc1cc2nc(Cl)nc(NS(=O)(=O)c3ccc(C)cc3C)c2cc1OC
- IC50 (FHC [1]): 73.1 µg/mL (≈ 179 µM)
- IC50 (DU-145 [2]): 47.8 µg/mL (≈ 117 µM)
- IC50 (SK-OV-3 [3]): 25.8 µg/mL (≈ 63.2 µM)
- IC50 (THP-1 [4]): 40.4 µg/mL (≈ 99.1 µM)
- IC50 (U-937 [5]): 65.1 µg/mL (≈ 160 µM)
- IC50 (COLO 205 [6]): 49 µg/mL (≈ 120 µM)

Compound: COc1cc2nc(N3CCOCC3)nc(NS(=O)(=O)c3ccc(C)cc3)c2cc1OC
- IC50 (DU-145 [2]): 51.3 µg/mL (≈ 115 µM)
- IC50 (THP-1 [4]): 92.5 µg/mL (≈ 208 µM)
- IC50 (COLO 205 [6]): 44.2 µg/mL (≈ 99.4 µM)
- Activity (SK-OV-3 [7]): inactive
- Activity (U-937 [9]): inactive
- Activity (FHC [11]): Non-Toxic

Compound: COc1cc2nc(Cl)nc(NS(=O)(=O)c3cccc4ccccc34)c2cc1OC
- IC50 (DU-145 [2]): 63.6 µg/mL (≈ 148 µM)
- IC50 (SK-OV-3 [3]): 95.3 µg/mL (≈ 222 µM)
- IC50 (THP-1 [4]): 82.4 µg/mL (≈ 192 µM)
- IC50 (U-937 [5]): 35.3 µg/mL (≈ 82 µM)
- Activity (COLO 205 [10]): inactive
- Activity (FHC [11]): Non-Toxic

Compound: COc1cc2nc(Cl)nc(NS(=O)(=O)Cc3ccccc3)c2cc1OC
- IC50 (U-937 [5]): 91.7 µg/mL (≈ 233 µM)
- Activity (SK-OV-3 [7]): inactive
- Activity (DU-145 [8]): inactive
- Activity (THP-1 [12]): inactive
- Activity (COLO 205 [10]): inactive
- Activity (FHC [11]): Non-Toxic
